Experimental data published in US20100297675A1, “SUBSTRATE AND METHOD FOR CULTURING BREAST CELLS” (priority 2008, published 2010).

Tests used:
[1] = test system: MCF-7 malignant breast cells; test: MCF-7 malignant cells cultured on 2D TCT culture surface, treated with inhibitor, confocal fluorescence imaging; format: cell-based; conditions: MCF-7 on TCT 2D surface; 4 μM on alternate days for 15 days; E-cadherin/DAPI stain; FIGS. 11A-C
Procedure: Differences in cellular morphology often contribute to differences in cellular function. To understand the difference of cellular functions between breast cells cultured in a porous substrate and on a 2D culture surface, 10,000 MCF-7 malignant cell were seeded and cultured in porous PDMS (as described in Example 1) and a TCT culture surface (tissue culture treated polystyrene, “TCT”, Coming Inc) under the same conditions. The cells were treated with 4 μM of PD98059 (MAPK inhibitor) and 4 μM of LY294002 (PI3K inhibitor) on alternate days for 15 days. […] In FIGS. 11A-C, the cells were stained for E-cadherin and counterstained with a DAPI nuclei stain. In FIG. 11A, untreated cells are shown at 14 days of culture. In FIG. 11B, cells treated with PD98059 are shown at 14 days of culture. In FIG. 11C, cells treated with LY294002 are shown at 14 days of culture. The green (E-cadherin) and blue (nuclei) stains cannot be seen in the black and white reproductions presented herein.

[2] = test system: MCF-7 malignant breast cells; test: MCF-7 malignant cells cultured in porous PDMS substrate, treated with inhibitor, confocal fluorescence imaging; format: cell-based; conditions: MCF-7 in porous PDMS, 4 μM on alternate days for 15 days, F-actin/DAPI stain
Description: Porous polydimethylsiloxane (PDMS) substrates were generated by mixing a PDMS pre-polymer and a curing agent using the Sylgard 182 kit available from Dow Corning in a ratio of 10 to 1. The mixture was closely packed with sugar crystals of size ranging from 212-250 micrometers, which was then filled in a mold and cured at 100 degrees for one hour. The sugar in the cured polymer was washed out in an ultrasonic bath, forming porous PDMS substrates. The resulting porous PDMS was released from the mold and assembled into multi-well plate for cell culture. Malignant breast cells MCF-7 were seeded in wells having the porous PDMS substrates described in Example 1. 10,000 cells were seeded and cultured in EMEM cell culture medium with 10% Fetal Bovine Serum, 5% pen/strep, and 10 μg/ml of insulin. The medium was changed on alternate days. Following two weeks of culture, the cells were stained with Rhodamine phalloidin (F-actin staining) and DAPI nuclei counter stain and imaged with confocal fluorescence microscope as shown in FIG. 9. […] Differences in cellular morphology often contribute to differences in cellular function. […]

breast cancer cells = conditions: Matrigel 3D culture system; reported; cited from earlier work

## COc1cccc(-c2cc(=O)c3ccccc3o2)c1N [PD98059]
[1]
  noticeable difference for the cells cultured on TCT surface (reversion of malignant phenotype or other change): failed to induce noticeable difference
[2]; FIGS. 12A-C
  colony size: significantly reduced the colony size
[2]; FIGS. 13A-C
  reversion of malignant phenotype (mass structure to acini structure): reversed malignant phenotype from mass structure to normal acini structure
Breast cancer cells
  reversal of malignant behaviors of breast cancer cells: reverse malignant behaviors of breast cancer cells to certain degrees
